Where a SMILES comes first, the peptide text is derived from it. The star is where a group is joined. Myristoyl = CCCCCCCCCCCCCC(=O)*
How the values were obtained:
MDA-MB-231 cells = assay type: cell-based, human; settings: 50 μM peptide, 48 hours, n = 1
Description: (§1) Non-adherent cells were removed during the washing steps.

[1] = system: CD44^hiCD24^lo CSCs in MDA-MB-231 cells; experiment: FACS analysis of CD44^hiCD24^lo cancer stem cells in MDA-MB-231 cells treated with P1 analogues; assay type: cell-based, human; settings: 50 μM peptide, 48 hours; for CD44^hiCD24^lo CSCs (%) / COI, Live Single CD44^hiCD24^lo CSCs (Cell Count): n = 1; for Average Inhibition of CSCs (%) / CD44^hiCD24^lo CSCs (%) Repeat 1 / CD44^hiCD24^lo CSCs (%) Repeat 2 / CD44^hiCD24^lo CSCs (%) Repeat 3: n = 3
Method: Analogues of P1 (Table 6) were designed and synthesized in accordance with the procedure of Example 5. The ability of these analogues to inhibit cancer stem cells was determined using FACS analysis on MDA-MB-231 cells, which constitutively contain approximately 90% CD44^hiCD24^lo cancer stem cells, treated with the peptides.
as §1
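Wherever COI, Live Single Cells (Cell Count) is given: live means Hoechst-negative events among single cells.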

## CCCCCCCCCCCCCC(=O)N[C@H](C(=O)N[C@@H](Cc1ccccc1)C(=O)N[C@H](C(=O)N[C@@H](Cc1ccccc1)C(=O)N[C@@H](CCCNC(=N)N)C(=O)N[C@@H](CC(C)C)C(=O)N[C@@H](CCCNC(=N)N)C(=O)N[C@@H](CCCCN)C(=O)NCC(=O)N[C@@H](CCCNC(=N)N)C(=O)N[C@@H](CCSC)C(=O)N[C@@H](C)C(=O)N[C@@H](CC(=O)O)C(=O)N[C@H](C(=O)N[C@@H](CCCCN)C(=O)N[C@@H](CCCCN)C(N)=O)C(C)C)[C@@H](C)CC)[C@@H](C)O [Peptide 2815313, Myristoyl-TFIFRLRKGRMADVKK-NH2] (Myristoyl-TFIFRLRKGRMADVKK-NH2)
MDA-MB-231 cells
  COI (Cell Count): 165
  COI, Live Single Cells (Cell Count): 130
  COI, Single (Cell Count): 148
  Total Cell Count: 8909
[1]
  Inhibition of CSCs (%) Repeat 1: 22.34%
  Inhibition of CSCs (%) Repeat 2: 23.02%
  Inhibition of CSCs (%) Repeat 3: 27.96%
  CD44^hiCD24^lo CSCs (%): 61.54%
  COI, Live Single CD44^hiCD24^lo CSCs (Cell Count): 80
  Average Inhibition of CSCs (%): 24.44%
  CD44^hiCD24^lo CSCs (%) Repeat 1: 69.60%
  CD44^hiCD24^lo CSCs (%) Repeat 2: 69.06%
  CD44^hiCD24^lo CSCs (%) Repeat 3: 64.65%

## CCCCCCCCCCCCCC(=O)N[C@@H](CC(C)C)C(=O)N[C@H](C(=O)N[C@@H](Cc1ccccc1)C(=O)N[C@H](C(=O)N[C@@H](Cc1ccccc1)C(=O)N[C@@H](CCCNC(=N)N)C(=O)N[C@H](C(=O)N[C@@H](CCCNC(=N)N)C(=O)N[C@@H](CCCCN)C(=O)NCC(=O)N[C@@H](CCCNC(=N)N)C(=O)N[C@@H](CCSC)C(=O)N[C@@H](CCSC)C(=O)N[C@@H](CC(=O)O)C(=O)N[C@H](C(=O)N[C@@H](CCCCN)C(=O)N[C@@H](CCCCN)C(N)=O)C(C)C)C(C)C)[C@@H](C)CC)[C@@H](C)O [Peptide 2853820, Myristoyl-LTFIFRVRKGRMMDVKK-NH2] (Myristoyl-LTFIFRVRKGRMMDVKK-NH2)
MDA-MB-231 cells
  COI (Cell Count): 541
  COI, Live Single Cells (Cell Count): 211
  COI, Single (Cell Count): 346
  Total Cell Count: 3098
[1]
  Inhibition of CSCs (%) Repeat 1: 89.75%
  Inhibition of CSCs (%) Repeat 2: 90.39%
  Inhibition of CSCs (%) Repeat 3: 91.76%
  CD44^hiCD24^lo CSCs (%): 6.64%
  COI, Live Single CD44^hiCD24^lo CSCs (Cell Count): 14
  Average Inhibition of CSCs (%): 90.63%
  CD44^hiCD24^lo CSCs (%) Repeat 1: 9.19%
  CD44^hiCD24^lo CSCs (%) Repeat 2: 8.62%
  CD44^hiCD24^lo CSCs (%) Repeat 3: 7.40%

## CCCCCCCCCCCCCC(=O)N[C@@H](CC(C)C)C(=O)N[C@H](C(=O)N[C@@H](Cc1ccccc1)C(=O)N[C@@H](CC(C)C)C(=O)N[C@@H](Cc1ccccc1)C(=O)N[C@@H](CCCNC(=N)N)C(=O)N[C@@H](CC(C)C)C(=O)N[C@@H](CCCNC(=N)N)C(=O)N[C@@H](CCCCN)C(=O)NCC(=O)N[C@@H](CCCNC(=N)N)C(=O)N[C@@H](CCSC)C(=O)N[C@@H](CCSC)C(=O)N[C@@H](CC(=O)O)C(=O)N[C@H](C(=O)N[C@@H](CCCCN)C(=O)N[C@@H](CCCCN)C(N)=O)C(C)C)[C@@H](C)O [Peptide 2853812, Myristoyl-LTFLFRLRKGRMMDVKK-NH2] (Myristoyl-LTFLFRLRKGRMMDVKK-NH2)
MDA-MB-231 cells
  COI (Cell Count): 108
  COI, Live Single Cells (Cell Count): 84
  COI, Single (Cell Count): 87
  Total Cell Count: 3794
[1]
  Inhibition of CSCs (%) Repeat 1: 80.95%
  Inhibition of CSCs (%) Repeat 2: 86.31%
  Inhibition of CSCs (%) Repeat 3: 86.89%
  CD44^hiCD24^lo CSCs (%): 16.67%
  COI, Live Single CD44^hiCD24^lo CSCs (Cell Count): 14
  Average Inhibition of CSCs (%): 84.72%
  CD44^hiCD24^lo CSCs (%) Repeat 1: 17.07%
  CD44^hiCD24^lo CSCs (%) Repeat 2: 12.28%
  CD44^hiCD24^lo CSCs (%) Repeat 3: 11.76%

## CCCCCCCCCCCCCC(=O)N[C@@H](CC(C)C)C(=O)N[C@H](C(=O)N[C@@H](Cc1ccccc1)C(=O)N[C@H](C(=O)N[C@@H](Cc1ccccc1)C(=O)N[C@@H](CCCNC(=N)N)C(=O)N[C@@H](CC(C)C)C(=O)N[C@@H](CCCNC(=N)N)C(=O)N[C@@H](CCCCN)C(=O)NCC(=O)N[C@@H](CCCNC(=N)N)C(=O)N[C@@H](CCSC)C(=O)N[C@@H](CCSC)C(=O)N[C@@H](CC(=O)O)C(=O)N[C@H](C(=O)N[C@@H](CC(C)C)C(=O)N[C@@H](CCCCN)C(N)=O)C(C)C)[C@@H](C)CC)[C@@H](C)O [Peptide 2853842, Myristoyl-LTFIFRLRKGRMMDVLK-NH2] (Myristoyl-LTFIFRLRKGRMMDVLK-NH2)
MDA-MB-231 cells
  COI (Cell Count): 325
  COI, Live Single Cells (Cell Count): 218
  COI, Single (Cell Count): 249
  Total Cell Count: 3873
[1]
  Inhibition of CSCs (%) Repeat 1: 76.16%
  Inhibition of CSCs (%) Repeat 2: 78.88%
  Inhibition of CSCs (%) Repeat 3: 81.46%
  CD44^hiCD24^lo CSCs (%): 12.39%
  COI, Live Single CD44^hiCD24^lo CSCs (Cell Count): 27
  Average Inhibition of CSCs (%): 78.83%
  CD44^hiCD24^lo CSCs (%) Repeat 1: 21.37%
  CD44^hiCD24^lo CSCs (%) Repeat 2: 18.95%
  CD44^hiCD24^lo CSCs (%) Repeat 3: 16.64%

## CCCCCCCCCCCCCC(=O)N[C@@H](C)C(=O)N[C@@H](Cc1ccccc1)C(=O)N[C@H](C(=O)N[C@@H](Cc1ccccc1)C(=O)N[C@@H](CCCNC(=N)N)C(=O)N[C@@H](CC(C)C)C(=O)N[C@@H](CCCNC(=N)N)C(=O)N[C@@H](CCCCN)C(=O)NCC(=O)N[C@@H](CCCNC(=N)N)C(=O)N[C@@H](CCSC)C(=O)N[C@@H](CCSC)C(=O)N[C@@H](CC(=O)O)C(=O)N[C@H](C(=O)N[C@@H](CCCCN)C(=O)N[C@@H](CCCCN)C(N)=O)C(C)C)[C@@H](C)CC [Peptide 2815302, Myristoyl-AFIFRLRKGRMMDVKK-NH2] (Myristoyl-AFIFRLRKGRMMDVKK-NH2)
MDA-MB-231 cells
  COI (Cell Count): 516
  COI, Live Single Cells (Cell Count): 438
  COI, Single (Cell Count): 466
  Total Cell Count: 5074
[1]
  Inhibition of CSCs (%) Repeat 1: 89.69%
  Inhibition of CSCs (%) Repeat 2: 91.79%
  Inhibition of CSCs (%) Repeat 3: 94.73%
  CD44^hiCD24^lo CSCs (%): 19.63%
  COI, Live Single CD44^hiCD24^lo CSCs (Cell Count): 86
  Average Inhibition of CSCs (%): 92.07%
  CD44^hiCD24^lo CSCs (%) Repeat 1: 9.24%
  CD44^hiCD24^lo CSCs (%) Repeat 2: 7.36%
  CD44^hiCD24^lo CSCs (%) Repeat 3: 4.73%

## CCCCCCCCCCCCCC(=O)N[C@H](C(=O)N[C@@H](Cc1ccccc1)C(=O)N[C@H](C(=O)N[C@@H](Cc1ccccc1)C(=O)N[C@@H](CCCNC(=N)N)C(=O)N[C@@H](CC(C)C)C(=O)N[C@@H](CCCNC(=N)N)C(=O)N[C@@H](CCCCN)C(=O)NCC(=O)N[C@@H](C)C(=O)N[C@@H](CCSC)C(=O)N[C@@H](CCSC)C(=O)N[C@@H](CC(=O)O)C(=O)N[C@H](C(=O)N[C@@H](CCCCN)C(=O)N[C@@H](CCCCN)C(N)=O)C(C)C)[C@@H](C)CC)[C@@H](C)O [Peptide 2815318, Myristoyl-TFIFRLRKGAMMDVKK-NH2] (Myristoyl-TFIFRLRKGAMMDVKK-NH2)
MDA-MB-231 cells
  COI (Cell Count): 183
  COI, Live Single Cells (Cell Count): 132
  COI, Single (Cell Count): 142
  Total Cell Count: 3480
[1]
  Inhibition of CSCs (%) Repeat 1: 54.80%
  Inhibition of CSCs (%) Repeat 2: 54.73%
  Inhibition of CSCs (%) Repeat 3: 55.59%
  CD44^hiCD24^lo CSCs (%): 53.03%
  COI, Live Single CD44^hiCD24^lo CSCs (Cell Count): 70
  Average Inhibition of CSCs (%): 55.04%
  CD44^hiCD24^lo CSCs (%) Repeat 1: 40.51%
  CD44^hiCD24^lo CSCs (%) Repeat 2: 40.61%
  CD44^hiCD24^lo CSCs (%) Repeat 3: 39.86%

## CCCCCCCCCCCCCC(=O)N[C@H](C(=O)N[C@@H](Cc1ccccc1)C(=O)N[C@H](C(=O)N[C@@H](Cc1ccccc1)C(=O)N[C@@H](CCCNC(=N)N)C(=O)N[C@@H](CC(C)C)C(=O)N[C@@H](CCCNC(=N)N)C(=O)N[C@@H](CCCCN)C(=O)N[C@@H](C)C(=O)N[C@@H](CCCNC(=N)N)C(=O)N[C@@H](CCSC)C(=O)N[C@@H](CCSC)C(=O)N[C@@H](CC(=O)O)C(=O)N[C@H](C(=O)N[C@@H](CCCCN)C(=O)N[C@@H](CCCCN)C(N)=O)C(C)C)[C@@H](C)CC)[C@@H](C)O [Peptide 2815310, Myristoyl-TFIFRLRKARMMDVKK-NH2] (Myristoyl-TFIFRLRKARMMDVKK-NH2)
MDA-MB-231 cells
  COI (Cell Count): 18
  COI, Live Single Cells (Cell Count): 7
  COI, Single (Cell Count): 16
  Total Cell Count: 8883
[1]
  Inhibition of CSCs (%) Repeat 1: 38.81%
  Inhibition of CSCs (%) Repeat 2: 39.40%
  Inhibition of CSCs (%) Repeat 3: 41.35%
  CD44^hiCD24^lo CSCs (%): 57.14%
  COI, Live Single CD44^hiCD24^lo CSCs (Cell Count): 4
  Average Inhibition of CSCs (%): 39.85%
  CD44^hiCD24^lo CSCs (%) Repeat 1: 54.84%
  CD44^hiCD24^lo CSCs (%) Repeat 2: 54.37%
  CD44^hiCD24^lo CSCs (%) Repeat 3: 52.63%

From US20200339691A1, “PROTEINACEOUS MOLECULES AND USES THEREFOR” (priority 2018, published 2020)
